Experimental data taken from the supplement of paper PMC10307832.

How the values were obtained:
Experiment in all cases: relative viability (nuclei count vs DMSO), 5 days (fraction); higher = more cells survive
Axitinib + Decitabine = compound: CNC(=O)c1ccccc1Sc1ccc2c(/C=C/c3ccccn3)n[nH]c2c1 [Axitinib] + Nc1ncn([C@H]2C[C@H](O)[C@@H](CO)O2)c(=O)n1 [Decitabine] (partner 2 µM)
How it was run: (§1)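 Relative viability is defined as nuclei in treated wells over nuclei in vehicle wells. Duplicate plates were run and medians reported. Lung cancer cell lines in 1536-well plates were dosed by pin tool one day after seeding, with one drug or with a fixed anchor-drug dose plus five library-drug doses (not always all listed) in √10 steps, and nuclei were counted after 5 days.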

[1] = compound: CC1=CC=C(C=C1)C(=O)CN2C3=C(CCCC3)SC2=N [Pifithrin_alpha] + CCNC(=O)c1noc(-c2cc(C(C)C)c(O)cc2O)c1-c1ccc(CN2CCOCC2)cc1 [Luminespib] (partner 0.01 µM)
How it was run: as §1

Bemcentinib + Bortezomib = compound: Nc1nc(Nc2ccc3c(c2)CC[C@@H](N2CCCC2)CC3)nn1-c1cc2c(nn1)-c1ccccc1CCC2 [Bemcentinib] + CC(C)C[C@H](NC(=O)[C@H](Cc1ccccc1)NC(=O)c1cnccn1)B(O)O [Bortezomib] (partner 0.002 µM)
How it was run: as §1

Axitinib + Vorinostat = compound: CNC(=O)c1ccccc1Sc1ccc2c(/C=C/c3ccccn3)n[nH]c2c1 [Axitinib] + O=C(CCCCCCC(=O)Nc1ccccc1)NO [Vorinostat] (partner 1 µM)
How it was run: as §1

Row | Cell Line | relative viability (Axitinib + Decitabine; first compound 0.005 µM) | relative viability (Axitinib + Decitabine; first compound 0.01581 µM) | relative viability (Axitinib + Decitabine; first compound 0.05 µM) | relative viability (Axitinib + Decitabine; first compound 0.1581 µM) | relative viability (Axitinib + Decitabine; first compound 0.5 µM) | relative viability ([1]; first compound 1 µM) | relative viability ([1]; first compound 3.162 µM) | relative viability ([1]; first compound 10 µM) | relative viability ([1]; first compound 100 µM) | relative viability (Bemcentinib + Bortezomib; first compound 0.04 µM) | relative viability (Bemcentinib + Bortezomib; first compound 0.1265 µM) | relative viability (Bemcentinib + Bortezomib; first compound 0.4 µM) | relative viability (Bemcentinib + Bortezomib; first compound 1.265 µM) | relative viability (Bemcentinib + Bortezomib; first compound 4 µM) | relative viability (Axitinib + Vorinostat; first compound 0.005 µM) | relative viability (Axitinib + Vorinostat; first compound 0.01581 µM) | relative viability (Axitinib + Vorinostat; first compound 0.05 µM) | relative viability (Axitinib + Vorinostat; first compound 0.1581 µM) | relative viability (Axitinib + Vorinostat; first compound 0.5 µM) | relative viability ([1]; first compound 31.62 µM)
1 | A549 | 0.324 | 0.296 | 0.338 | 0.243 | 0.324 |  |  |  |  |  |  |  |  |  |  |  |  |  |  | 
2 | CAL-12T |  |  |  |  |  | 0.277 | 0.327 | 0.521 | 0.186 | 0.977 | 0.936 | 0.953 | 0.736 | 0.908 | 0.869 | 0.72 | 0.686 | 0.737 | 1.12 | 
3 | Calu-6 |  |  |  |  |  |  |  |  |  | 1.05 | 1.07 | 1.07 | 1.08 | 1.12 |  |  |  |  |  | 
4 | EBC-1 |  |  |  |  |  |  |  |  |  | 0.585 | 0.547 | 0.525 | 0.458 | 0.585 |  |  |  |  |  | 
5 | HCC-78 | 0.69 | 0.577 | 0.806 | 0.698 | 0.653 |  |  |  |  | 0.485 | 0.516 | 0.556 | 0.541 | 0.491 | 0.437 | 0.407 | 0.333 | 0.348 | 0.404 | 
6 | HCC-366 | 0.361 | 0.356 | 0.393 | 0.323 | 0.423 |  |  |  |  | 0.985 | 1.16 | 1.35 | 1.1 | 1.06 | 0.666 | 0.414 | 0.447 | 0.333 | 0.395 | 
7 | IA-LM |  |  |  |  |  |  |  |  |  | 0.663 | 0.696 | 0.799 | 0.923 | 0.808 | 1.02 | 1.02 | 0.974 | 0.934 | 0.973 | 
8 | LK-2 | 0.262 | 0.245 | 0.298 | 0.347 | 0.222 | 0.219 | 0.179 | 0.171 | 0.229 |  |  |  |  |  | 0.343 | 0.292 | 0.209 | 0.301 | 0.232 | 
9 | NCI-H358 | 0.226 | 0.222 | 0.221 | 0.214 | 0.198 | 0.462 | 0.478 | 0.26 | 0.324 |  |  |  |  |  | 0.698 | 0.675 | 0.689 | 0.573 | 0.726 | 0.247
10 | NCI-H522 | 0.639 | 0.725 | 0.625 | 0.63 | 0.624 |  | 1.16 | 1.26 | 1.11 |  |  |  |  |  | 0.919 | 0.909 | 0.863 | 0.855 | 0.702 | 0.993
11 | NCI-H1299 |  |  |  |  |  |  |  |  |  | 0.981 | 1.03 | 1.03 | 1.04 | 1.09 |  |  |  |  |  | 
12 | NCI-H1395 | 0.795 | 0.681 | 0.622 | 0.746 | 0.751 | 0.704 | 0.518 | 0.631 | 0.657 |  |  |  |  |  | 0.706 | 0.529 | 0.709 | 0.639 | 0.649 | 0.663
13 | NCI-H1563 |  |  |  |  |  | 0.489 | 0.549 | 0.47 | 0.539 | 0.811 | 0.86 | 0.859 | 0.992 | 0.863 |  |  |  |  |  | 0.467
14 | NCI-H1623 |  |  |  |  |  | 0.464 | 0.285 | 0.339 | 0.322 |  |  |  |  |  |  |  |  |  |  | 0.318
15 | NCI-H1648 | 0.537 | 0.574 | 0.568 | 0.519 | 0.478 |  |  |  |  |  |  |  |  |  | 0.37 | 0.514 | 0.316 | 0.34 | 0.363 | 
16 | NCI-H1703 |  |  |  |  |  |  |  |  |  | 0.25 | 0.237 | 0.292 | 0.284 | 0.29 |  |  |  |  |  | 
17 | NCI-H1792 | 0.527 | 0.508 | 0.429 | 0.533 | 0.575 | 0.323 | 0.666 | 0.284 | 0.271 | 1.02 | 1.17 | 1.19 | 1.04 | 1.03 |  |  |  |  |  | 0.219
18 | NCI-H1793 | 0.595 | 0.55 | 0.478 | 0.413 | 0.559 |  | 0.168 | 0.17 | 0.194 |  |  |  |  |  | 0.955 | 0.679 | 0.693 | 0.637 | 0.678 | 0.186
19 | NCI-H1944 | 0.47 | 0.428 | 0.452 | 0.397 | 0.455 | 0.694 | 0.633 | 0.588 | 0.504 |  |  |  |  |  | 0.616 | 0.54 | 0.585 | 0.498 | 0.518 | 0.42
20 | NCI-H2170 | 0.483 | 0.439 | 0.411 | 0.48 | 0.488 | 0.849 | 0.53 | 0.742 | 0.705 |  |  |  |  |  | 0.898 | 0.85 | 0.896 | 0.739 | 0.799 | 0.542
21 | NCI-H2228 |  |  |  |  |  | 0.145 | 0.15 | 0.178 | 0.124 |  | 1.04 | 1.12 | 0.93 | 1.08 | 0.818 | 0.618 | 0.605 | 0.506 | 0.885 | 0.149
22 | NCI-H2342 | 0.717 | 0.68 | 0.769 | 0.658 | 0.794 | 0.653 | 0.665 | 0.699 | 0.71 |  |  |  |  |  | 0.98 | 0.784 | 0.666 | 0.665 | 0.72 | 0.773
23 | SK-MES-1 | 0.324 | 0.361 | 0.364 | 0.348 | 0.449 | 0.644 | 0.698 | 0.478 | 0.286 |  |  |  |  |  | 1.1 | 1.12 | 1.25 | 1.02 | 1.27 | 0.262
24 | SW 900 | 0.428 |  | 0.477 | 0.4 | 0.602 | 0.2 | 0.194 | 0.142 | 0.19 |  |  |  |  |  | 0.51 |  | 0.434 | 0.472 | 0.829 | 0.167
